Patent US20250242064A1, “CXCR4-TARGETING COMPOUNDS, AND METHODS OF MAKING AND USING THE SAME” (PROVINCIAL HEALTH SERVICES AUTHORITY, priority 2022, published 2025)
Where a SMILES comes first, the peptide text is derived from it. Bridges are numbered along the chain shown (N, C = ends). Side-chain parts run from the residue outwards. [ ]: non-standard residue; d: D form. The star is where a group is joined. X1 = O=C(O)CN1CCN(CC(=O)O)CCN(CC(=O)N[C@@H](CS(=O)(=O)O)C(=O)N[C@@H](CCCCNC(=O)CCCc2ccc(I)cc2)C(=O)*)CCN(CC(=O)O)CC1; DOTA = O=C(O)CN1CCN(CC(=O)O)CCN(CC(=O)*)CCN(CC(=O)O)CC1; NMeLys(iPr) = CN[C@@H](CCCCNC(C)C)C(=O)O; 2Nal = N[C@@H](Cc1ccc2ccccc2c1)C(=O)O; Lys(iPr) = CC(C)NCCCC[C@H](N)C(=O)O; Cya = N[C@@H](CS(=O)(=O)O)C(=O)O

Experiment: in vivo
Parameters: species or system mice
Conditions: male, NOD.Cg-Rag1tm1Mom Il2rgtm1Wjl/SzJ (NRG), mouse, iv, total radioactivity
Outline: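 Male NRG mice bearing subcutaneous Z138 mantle cell lymphoma xenografts (5×10^6 cells, grown to 200-300 mm^3) injected intravenously under isoflurane with 68Ga-labelled tracers. Harvested tissues weighed and gamma-counted; uptake expressed as % ID/g.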

[1] = Biodistribution: Small Intestine

tissue uptake at 1 h (Biodistribution: Adrenals) | tissue uptake at 1 h (Biodistribution: Blood) | tissue uptake at 1 h (Biodistribution: Bone) | tissue uptake at 1 h (Biodistribution: Brain) | tissue uptake at 1 h (Biodistribution: Heart) | tissue uptake at 1 h (Biodistribution: Kidneys) | tissue uptake at 1 h (Biodistribution: Liver) | tissue uptake at 1 h (Biodistribution: Lungs) | tissue uptake at 1 h (Biodistribution: Muscle) | tissue uptake at 1 h (Biodistribution: Pancreas) | tissue uptake at 1 h [1] | tissue uptake at 1 h (Biodistribution: Spleen) | tissue uptake at 1 h (Biodistribution: Stomach) | tissue uptake at 1 h (Biodistribution: Testes) | tissue uptake at 1 h (Biodistribution: Z138 Tumor) | tissue to tissue ratio at 1 h (Ratio Tumor-to-Blood) | tissue to tissue ratio at 1 h (Ratio Tumor-to-Bone) | tissue to tissue ratio at 1 h (Ratio Tumor-to-Kidney) | tissue to tissue ratio at 1 h (Ratio Tumor-to-Muscle) | tissue to tissue ratio at 1 h (Ratio Tumor-to-Pancreas) | Structure (SMILES) | other results
4.99 %ID/g | 18.7 %ID/g | 1.53 %ID/g | 0.29 %ID/g | 4.53 %ID/g | 5.39 %ID/g | 3.7 %ID/g | 8.36 %ID/g | 1.39 %ID/g | 1.67 %ID/g | 1.28 %ID/g | 2.35 %ID/g | 0.97 %ID/g | 2.14 %ID/g | 6.55 %ID/g | 0.35 | 4.32 | 1.27 | 4.85 | 3.91 | CC(C)NCCCC[C@H](NC(=O)[C@H]1CCC(=O)N[C@@H](CCCCNC(=O)[C@H](CCCCNC(=O)CCCc2ccc(I)cc2)NC(=O)[C@H](CS(=O)(=O)O)NC(=O)CN2CCN(CC(=O)O)CCN(CC(=O)O)CCN(CC(=O)O)CC2)C(=O)N[C@@H](Cc2ccc(O)cc2)C(=O)N[C@@H](CCCCNC(C)C)C(=O)N[C@H](CCCNC(=N)N)C(=O)N[C@@H](Cc2ccc3ccccc3c2)C(=O)N[C@H](C)C(=O)N1)C(N)=O [[^68Ga]Ga-BL34L11, metal not drawn] (K(X1)Y[Lys(iPr)][dR][2Nal][dA][dE][Lys(iPr)]-NH2; lactam N-7) | tissue uptake at 3 h (Biodistribution: Adrenals): 2.34 %ID/g; tissue uptake at 3 h (Biodistribution: Blood): 13.4 %ID/g; tissue uptake at 3 h (Biodistribution: Bone): 1.23 %ID/g; tissue uptake at 3 h (Biodistribution: Brain): 0.22 %ID/g; tissue uptake at 3 h (Biodistribution: Heart): 3.17 %ID/g; tissue uptake at 3 h (Biodistribution: Kidneys): 3.9 %ID/g; tissue uptake at 3 h (Biodistribution: Liver): 3.02 %ID/g; tissue uptake at 3 h (Biodistribution: Lungs): 6.64 %ID/g; tissue uptake at 3 h (Biodistribution: Muscle): 1.08 %ID/g; tissue uptake at 3 h (Biodistribution: Pancreas): 1.42 %ID/g; tissue uptake at 3 h [1]: 1.11 %ID/g; tissue uptake at 3 h (Biodistribution: Spleen): 2 %ID/g; tissue uptake at 3 h (Biodistribution: Stomach): 0.48 %ID/g; tissue uptake at 3 h (Biodistribution: Testes): 2.59 %ID/g; tissue uptake at 3 h (Biodistribution: Z138 Tumor): 11.3 %ID/g; tissue to tissue ratio at 3 h (Ratio Tumor-to-Blood): 0.85; tissue to tissue ratio at 3 h (Ratio Tumor-to-Bone): 10.3; tissue to tissue ratio at 3 h (Ratio Tumor-to-Kidney): 2.91; tissue to tissue ratio at 3 h (Ratio Tumor-to-Muscle): 10.5; tissue to tissue ratio at 3 h (Ratio Tumor-to-Pancreas): 7.95
0.17 %ID/g | 0.32 %ID/g | 0.13 %ID/g | 0.02 %ID/g | 0.12 %ID/g | 2.7 %ID/g | 0.71 %ID/g | 0.44 %ID/g | 0.09 %ID/g | 0.08 %ID/g | 0.19 %ID/g | 0.26 %ID/g | 0.05 %ID/g | 0.18 %ID/g | 12 %ID/g | 37.7 | 92.2 | 4.6 | 157 | 146 | CC(C)NCCCC[C@H](NC(=O)[C@H]1CCC(=O)N[C@@H](CCCCNC(=O)[C@H](CS(=O)(=O)O)NC(=O)CN2CCN(CC(=O)O)CCN(CC(=O)O)CCN(CC(=O)O)CC2)C(=O)N[C@@H](Cc2ccc(O)cc2)C(=O)N(C)[C@@H](CCCCNC(C)C)C(=O)N[C@H](CCCNC(=N)N)C(=O)N[C@@H](Cc2ccc3ccccc3c2)C(=O)N[C@H](C)C(=O)N1)C(N)=O [[^68Ga]Ga-BL34N1, metal not drawn] (K([Cya-DOTA])Y[NMeLys(iPr)][dR][2Nal][dA][dE][Lys(iPr)]-NH2; lactam N-7) | 
